Laboratory results from patent publication US5434256A, “Diamine platinum complexes as antitumor agents” (priority 1994, dated 1995).
pIC50: −log10 of the molar value. “Also recorded” adds a separate entry of the source.

Key:
[1] = system: Murine Leukemia L1210/DACH; assay: In vivo antitumor activity against murine leukemia L1210/DACH (Example 3, Table 6); set-up: species or system BDF1 mice; conditions: for MTD (Maximum Tolerated Dose) / % T/C (mean survival time of treated/mean survival time of control) × 100 / long term survivors/no. tested: L1210/DACH i.p., BDF1 mice, drug i.p. days 1, 5, 9; for % T/C (mean survival time of treated/mean survival time of control) × 100: at optimal dose/MTD; for long term survivors/no. tested: figures in parenthesis
Procedure: (§1) Each of the platinum complexes was evaluated in vivo against L1210/0, L1210/DDP, L1210/DACH and M5076 cells at several dose levels. […] The data at optimal doses are reproduced in Tables 4-7 along with data for the cyclobutanedicarboxylato, aquasulfato, methylmalonato and tartronato analogs (compounds 1-4 in Table 1).
(§2) BDF1 mice inoculated i.p. with 10^5 L1210 Leukemia cells on day 0 and
(§3) drug administered i.p. on days 1, 5, and 9. MTD = Maximum Tolerated Dose
(§4) (mg/kg/injection), % T/C = (mean survival time of treated/mean survival
(§5) time of control) × 100. Figures in parenthesis indicated long term

M5076 Tumor Model = assay: In vivo antitumor activity against M5076 tumor model (Example 3, Table 4); set-up: species or system BDF1 mice; TGD (Tumor Growth Delay): unit not given beside the values; conditions: M5076 s.c., BDF1 mice, i.p. days 7, 14, 21, 28; for TGD (Tumor Growth Delay): at optimal dose/MTD
Procedure: as §1
BDF1 mice inoculated s.c. with 10' M5076 cells on day 0 and drug
administered i.p on days 7, 14, 21, and 28. MTD = Maximum Tolerated Dose
(mg/kg/injection), TGD = Tumor Growth Delay

A2780 cells = assay: Modified MTT cytotoxicity assay, human ovarian A2780 (Example 2, Table 3); format: cell-based; conditions: continuous exposure (5 days in table footnote; 7 days in text)
L1210/0 cells [2] = assay: Modified MTT cytotoxicity assay, murine leukemia L1210/0 (Example 2, Table 3); format: cell-based; conditions: L1210/0; MTT, continuous exposure 5 days
Murine Leukemia L1210/0 = assay: In vivo antitumor activity against murine leukemia L1210/0 (Example 3, Table 5); set-up: species or system BDF1 mice; conditions: for MTD (Maximum Tolerated Dose) / % T/C (mean survival time of treated/mean survival time of control) × 100 / long term survivors/no. tested: L1210/0 i.p., BDF1 mice, drug i.p. days 1, 5, 9; for % T/C (mean survival time of treated/mean survival time of control) × 100: at optimal dose/MTD; for long term survivors/no. tested: figures in parenthesis
Procedure: as §1
BDF1 mice inoculated i.p. with 10^5 L1210 Leukemiacells on day 0 and
as §3, §4
time of control) × 100. Figures in parenthesis indicate long term

[3] = Renal and hematological toxicity, single i.p. dose (Table 8); conditions: for BUN d.5: blood urea nitrogen, saline control 20.9; for Body Wt. on d.5: mean, S.D. less than 20%
Murine Leukemia 1210/DDP = assay: In vivo antitumor activity against murine leukemia L1210/DDP (Example 3, Table 7); set-up: species or system BDF1 mice
Procedure: as §1, §2
drug administed i.p. on days 1, 5, and 9. MTD = Maximum Tolerated Dose
as §4, §5

L1210/DACH cells = assay: MTT cytotoxicity, tetraplatin-resistant L1210/DACH (Example 5, Table 10); format: cell-based, murine; conditions: 72 hr (3 days) continuous exposure
L1210/0 cells [4] = assay: MTT cytotoxicity, L1210/0 (Example 5, Table 10); format: cell-based, murine; conditions: 72 hr (3 days) continuous exposure
L1210/DDP cells = assay: MTT cytotoxicity, cisplatin-resistant L1210/DDP (Example 5, Table 10); format: cell-based, murine; conditions: 72 hr (3 days) continuous exposure
[5] = single i.p. dose (mg/kg): 1,4-DACH-Pt^II CBDCA 300, 1,4-DACH-Pt^IV Cl4 8.0, Tetraplatin 8.0, Cis-platin 12.0, Carboplatin 150

Compound | MTD (Maximum Tolerated Dose) [1] | % T/C (mean survival time of treated/mean survival time of control) × 100 [1] | MTD (Maximum Tolerated Dose) (M5076 Tumor Model) | TGD (Tumor Growth Delay) (M5076 Tumor Model) | pIC50 (A2780 cells) | pIC50 (L1210/0 cells [2]) | MTD (Maximum Tolerated Dose) (Murine Leukemia L1210/0) | % T/C (mean survival time of treated/mean survival time of control) × 100 (Murine Leukemia L1210/0) | pIC50 (L1210/DACH cells) | pIC50 (L1210/0 cells [4]) | pIC50 (L1210/DDP cells) | other results
NC1CCC(N)CC1.[Cl][Pt]([Cl])([Cl])[Cl] (stereo not drawn) [Compound 7, Cis-1,4-Diaminocyclohexanetetrachloroplatinum(IV)] | 3.1 mg/kg/injection | 146% | 3.1 mg/kg/injection | 18.74 | 7.05 | 6.92 | 3.1 mg/kg/injection | 335% |  |  |  | antitumor activity in vivo against L1210/DACH (in words) ([1]; L1210/DACH): good activities; also recorded: good activity; antitumor activity in vivo against L1210/0 (in words) (Murine Leukemia L1210/0; L1210/0): excellent activity; also recorded: comparable or slightly greater activity; long term survivors/no. tested (Murine Leukemia L1210/0): 2/5; BUN d.5 [3, 5]: 21.3 mg %; Survivors on d.14 [3, 5]: 4/5; Body Wt. on d.5 [3, 5]: 89 % on control; nephrotoxicity (in words) ([3]; single i.p. dose, BUN): did not show any indication of nephrotoxicity; myelotoxicity / myelosuppression (in words) ([3]; single i.p. dose, leucopenia): did not show any indication of nephrotoxicity or myelotoxicity; antitumor activity in vivo against L1210/DDP (in words) (Murine Leukemia 1210/DDP): good activities; also recorded: comparable or slightly greater activity; MTD (Maximum Tolerated Dose) (Murine Leukemia 1210/DDP; L1210/DDP i.p., BDF1 mice, drug i.p. days 1, 5, 9): 3.1 mg/kg/injection; % T/C (mean survival time of treated/mean survival time of control) × 100 (Murine Leukemia 1210/DDP; L1210/DDP i.p., BDF1 mice, drug i.p. days 1, 5, 9, at optimal dose/MTD): 170%; long term survivors/no. tested (Murine Leukemia 1210/DDP; L1210/DDP i.p., BDF1 mice, drug i.p. days 1, 5, 9, figures in parenthesis): 1/5
N[C@H]1CC[C@@H](N)CC1.O=C([O-])CC(=O)[O-].[Pt+2] [Compound 6, Cis-1,4-diaminocyclohexanemalonatoplatinum(II)] |  |  |  |  | 7.10 | 6.47 |  |  |  |  |  | 
NC1CCC(N)CC1.O.O=S(=O)([O-])[O][Pt+] (stereo not drawn) [Compound 2, Cis-1,4-Diaminocyclohexaneaquasulfatoplatinum(II)] | 1.56 mg/kg/injection | 140% | 3.1 mg/kg/injection | 12.1 | 7.30 | 7.10 | 1.56 mg/kg/injection | > 571% |  |  |  | long term survivors/no. tested [1]: 1/5; long term survivors/no. tested (Murine Leukemia L1210/0): 3/5
CCC(=O)[O][Pt]([Cl])([Cl])[O]C(=O)CC.NC1CCC(N)CC1 [Compound 21, (cis-1,4-DACH)PtCl2 trans-(propionate)2] |  |  |  |  |  |  |  |  | 7.40 | 8.26 | 6.30 | 
NC1CCC(N)CC1.O=C1[O][Pt]([Cl])([Cl])[O]C1=O [Compound 10, Cis-1,4-diaminocyclohexaneoxalatodichloroplatinum(IV)] |  |  |  |  | 7.29 | 6.70 |  |  |  |  |  | 
CCCCCC(=O)[O][Pt]1([Cl])([Cl])([O]C(=O)CCCCC)[NH]C2CCCCC2[NH]1 [Compound 19, (R,R-1,2-DACH)PtCl2 trans-(hexanoate)2] |  |  |  |  |  |  |  |  | 5.82 | 7.40 | 6.64 | 
CCCC(=O)[O][Pt]([Cl])([Cl])[O]C(=O)CCC.NC1CCC(N)CC1 [Compound 22, (cis-1,4-DACH)PtCl2 trans-(butyrate)2] |  |  |  |  |  |  |  |  | 7.70 | 8.92 | 6.89 | 
CCCCCCC(=O)[O][Pt]([Cl])([Cl])[O]C(=O)CCCCCC.N[C@@H]1CCCC[C@H]1N [Compound 20, (R,R-1,2-DACH)PtCl2trans(heptanoate)2] |  |  |  |  |  |  |  |  | 5.64 | 6.82 | 6.15 | 
NC1CCC(N)CC1.O.O=C([O-])C1(C(=O)[O-])CCC1.[Pt+2] [Compound 1, Cis-1,4-diaminocyclohexane-1,1-cyclobutanedicarboxylato-platinum(II).H2 O] | 200 mg/kg/injection | 180% | 200 mg/kg/injection | 42.3 | 6.37 | 5.80 | 200 mg/kg/injection | 195% |  |  |  | long term survivors/no. tested [1]: 1/5; BUN d.5 [3, 5]: 18.0 mg %; Body Wt. on d.5 [3, 5]: 99 % on control; antitumor activity in vivo against L1210/DDP (in words) (Murine Leukemia 1210/DDP): inactive
